From patent publication US20070269503A1, “Combinations of HMG CoA reductase inhibitors and negatively charged phospholipids and uses thereof” (priority 2006, published 2007)
Like-named read-outs stand apart in the source and are kept apart here.

What was measured:
[1] = tested on: HepG2 cells; conditions: cited from earlier work
[2] = normocholesterolemic male Sprague-Dawley rats; 5.5% by weight of rat chow, approximately 4 g/Kg body weight; cited from earlier work
[3] = Oral PI, plasma HDL cholesterol and apoA-I; format: in vivo; conditions: conventional formulations, about 5.6 g/day
Source text: The efficacy of orally administered phosphatidyl-inositol(PI) for raising plasma HDL cholesterol and apoA-I levels can be improved considerably (e.g. 2- to 8-fold) by combining PI with an intestinal absorption enhancer (IAE) (U.S. patent application Ser. No. 60/684212, herein incorporated by reference).

[4] = oral PI combined with an intestinal absorption enhancer (IAE); cited from earlier work

For `CC(C)c1c(C(=O)Nc2ccccc2)c(-c2ccccc2)c(-c2ccc(F)cc2)n1CC[C@@H](O)C[C@@H](O)CC(=O)O` [atorvastatin], the “inhibition of cholesterol synthesis” value ([1]; concentrations between 0.01 to 10 μM) is given as 45-65%.

In the case of Phosphatidic acid [PA], the “decrease in plasma triglycerides” value [2] is listed as “about 40%” and the “increase in HDL cholesterol” value [2] is listed as “about 2 fold”.

For phosphatidylinositol [PI], the “increase in apoA-I” value [3] is given as about 10%, the “increase in plasma HDL cholesterol” value [3] is given as about 20% and the “inhibition of cholesterol synthesis” value ([1]; 11.7 μM) is given as 50%. For the same compound, the “improvement of efficacy for raising plasma HDL cholesterol and apoA-I levels” value [4] was 2- to 8 fold.
